From patent publication US6071903A, “2,3,4,5-tetrahydro-1H-[1,4]-benzodiazepine-3-hydroxyamic acids” (American Cyanamid Company, priority 1999, dated 2000) come the findings set out here.

Common to all, as to format: biochemical
In test [1] the target is T1, TACE (Homo sapiens, UniProt P78536).
T1 construct: purchased Immunex
The test can be described thus: Procedure for Measuring TACE Inhibition. As for the experimental part: Procedure for Measuring TACE Inhibition
The plates were incubated for 10 minutes at room temperature. The reaction was initiated by addition of a fluorescent peptidyl substrate (final concentration 100 μM) to each well with shaking on a shaker for 5 sec.
The reaction was read (excitation 340 nm, emission 420 nm) for 10 min. and the increase in fluorescence over time was plotted as a linear line. The slope of the line was calculated and this represents the reaction rate. […] The mean (x±sem) of the control rate was calculated and compared for statistical significance (p<0.05) with drug-treated rates using Dunnett's multiple comparison test.

In test [2] the target is MMP-13 (Homo sapiens, UniProt P45452). Briefly: MMP-13 inhibition (Table 1). As to conditions: read-out: IC50 (nM) MMP-13.
Test [3] has as its target T2, MMP-1 (Homo sapiens, UniProt P03956).
T2 construct: human recombinant fibroblast collagenase (truncated, mw=18,828)
T2 sequence (P03956 100-269 limits assumed): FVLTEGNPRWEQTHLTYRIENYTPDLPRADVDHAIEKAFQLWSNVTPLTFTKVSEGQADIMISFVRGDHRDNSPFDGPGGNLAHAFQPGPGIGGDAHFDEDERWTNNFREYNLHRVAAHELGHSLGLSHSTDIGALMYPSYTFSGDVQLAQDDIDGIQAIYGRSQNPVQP
Briefly: In Vitro Collagenase Assay (MMP-1). As to conditions: human recombinant fibroblast collagenase. The text has this:
In Vitro Collagenase Assay
This assay was based on the cleavage of a peptide substrate ((Dnp-Pro-Cha-Gly-Cys(Me)-His-Ala-Lys(NMa)-NH2), available from Peptide International, Inc.) by collagenase releasing the fluorescent NMa group which was quantitated on the fluorometer as disclosed in Bickett et al., "A High Throughput Fluorogenic Substrate for Interstitial Collagenase (MMP-1) and Gelatinase (MMP-9)", Anal. Biochem., 212:58-64, (1993). Dnp quenches the NMa fluorescence in the intact substrate.
The assay was run in HCBC assay buffer (50 mM HEPES, pH 7.0, 5 mM Ca^+2, 0.02% Brij, 0.5% Cysteine), with human recombinant fibroblast collagenase (truncated, mw=18,828. from Wyeth-Ayerst Research, Radnor, Pa.). The substrate was dissolved in methanol and stored frozen in 1 mM aliquots. Collagenase was stored frozen in buffer in 25 μM aliquots. In conducting the assay, the substrate was dissolved in HCBC buffer to a final concentration of 10 μM and collagenase to a final concentration of 5 nM. The compounds being examined were dissolved in methanol, DMSO, or HCBC. The methanol and DMSO were diluted in HCBC to <1.0%. The compounds were added to a 96 well plate containing enzyme and the reaction was started by the addition of substrate.
The reaction was read (excitation 340 nm, emission 444 nm) for 10 min. and the increase in fluorescence over time was plotted as a linear line. The slope of the line was calculated representing the reaction rate. The linearity of the reaction rate was confirmed (r^2 >0.85). The mean (x±sem) of the control rate was calculated and compared for statistical significance (p<0.05) with drug-treated rates using Dunnett's multiple comparison test.

The target of test [4] is MMP-9 (Homo sapiens, UniProt P14780). The test can be described thus: In Vitro Gelatinase Assay (MMP-9). As to conditions: human neutrophil gelatinase B. As for the experimental part: The enzyme activity is measured by the rate of the color increase. The thiopeptide substrate was made up fresh as a 20 mM stock in 100% DMSO and the DTNB was dissolved in 100% DMSO as a 100 mM stock and stored in the dark at room temperature. The substrate and the DTNB were diluted together to 1 mM with substrate buffer (50 mM HEPES, pH 7.5, 5 mM CaCl2) before use. […] The assay buffer, enzyme. […] The increase in OD405 was plotted and the slope of the line was calculated. The slope represents the reaction rate.
Sequence of MMP-9 (P14780 94-707): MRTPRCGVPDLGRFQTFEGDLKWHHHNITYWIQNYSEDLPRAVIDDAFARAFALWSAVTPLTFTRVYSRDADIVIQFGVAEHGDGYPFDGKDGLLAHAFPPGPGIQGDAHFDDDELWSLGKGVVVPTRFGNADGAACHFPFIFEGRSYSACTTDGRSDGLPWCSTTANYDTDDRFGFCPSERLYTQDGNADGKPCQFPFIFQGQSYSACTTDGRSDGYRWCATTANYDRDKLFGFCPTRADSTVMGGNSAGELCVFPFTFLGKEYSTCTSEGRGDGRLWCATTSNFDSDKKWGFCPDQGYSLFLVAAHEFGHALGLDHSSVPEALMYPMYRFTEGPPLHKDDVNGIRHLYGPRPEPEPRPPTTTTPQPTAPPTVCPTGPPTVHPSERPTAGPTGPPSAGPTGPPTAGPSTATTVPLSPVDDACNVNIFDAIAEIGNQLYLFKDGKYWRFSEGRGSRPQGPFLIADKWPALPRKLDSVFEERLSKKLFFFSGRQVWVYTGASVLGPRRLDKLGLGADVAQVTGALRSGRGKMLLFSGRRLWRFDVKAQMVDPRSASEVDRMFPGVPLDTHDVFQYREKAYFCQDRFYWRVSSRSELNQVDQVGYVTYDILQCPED

T1 sequence (P78536 215-824): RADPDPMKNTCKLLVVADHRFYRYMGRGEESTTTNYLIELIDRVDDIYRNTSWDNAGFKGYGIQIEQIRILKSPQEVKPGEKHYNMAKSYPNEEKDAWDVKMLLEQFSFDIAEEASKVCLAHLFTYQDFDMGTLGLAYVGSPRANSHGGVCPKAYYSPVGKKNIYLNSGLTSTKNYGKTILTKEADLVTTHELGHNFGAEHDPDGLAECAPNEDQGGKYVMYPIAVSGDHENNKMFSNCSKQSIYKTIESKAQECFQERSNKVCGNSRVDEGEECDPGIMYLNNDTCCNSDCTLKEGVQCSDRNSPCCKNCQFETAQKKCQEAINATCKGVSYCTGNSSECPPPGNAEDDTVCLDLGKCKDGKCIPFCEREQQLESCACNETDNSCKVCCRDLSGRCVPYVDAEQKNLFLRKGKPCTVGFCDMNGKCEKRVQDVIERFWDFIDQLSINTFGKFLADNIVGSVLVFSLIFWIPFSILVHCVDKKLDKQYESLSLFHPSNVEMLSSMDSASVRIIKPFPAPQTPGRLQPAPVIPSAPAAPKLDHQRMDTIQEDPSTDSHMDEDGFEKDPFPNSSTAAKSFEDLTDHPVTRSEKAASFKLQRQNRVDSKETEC

Turning to `COc1ccc(S(=O)(=O)N2Cc3ccccc3N(C(=O)c3ccc(-c4ccccc4)cc3)CC2C(=O)NO)cc1` (stereo not shown) [Example 15, 1-(4-Biphenylcarbonyl)-4-(4-methoxybenzenesulfonyl)-2,3,4,5-tetrahydro-1H-[1,4]benzodiazepine-3-carboxylic acid, Hydroxyamide], the IC50 (usually the midpoint of a concentration-inhibition curve) came to 199 nM in test [1], 0.4 nM in test [2], 52.7 nM in test [3] and 0.7 nM in test [4].
Taken in the same sequence, the figures for `COc1ccc(S(=O)(=O)N2Cc3ccccc3N(C(=O)c3ccco3)CC2C(=O)NO)cc1` (stereo not shown) [Example 40, 1-(2-Furanylcarbonyl)-4-(4-methoxybenzenesulfonyl)-2,3,4,5-tetrahydro-1H-[1,4]benzodiazepine-3-carboxylic acid, Hydroxyamide] were 28.5 nM, 1.2 nM, 16.6 nM and 1.4 nM.
Taken in the same sequence, the figures for `COc1ccc(S(=O)(=O)N2Cc3ccccc3N(C(=O)COc3ccccc3)CC2C(=O)NO)cc1` (stereo not shown) [Example 58, 4-(4-Methoxybenzenesulfonyl)-1-(phenoxyacetyl)-2,3,4,5-tetrahydro-1H-[1,4]benzodiazepine-3-carboxylic acid, Hydroxamide] were 154 nM, 2.9 nM, 65.5 nM and 4.4 nM.
The like results for `COCC(=O)N1CC(C(=O)NO)N(S(=O)(=O)c2ccc(OC)cc2)Cc2cc(C)ccc21` (stereo not shown) [Example 59, 1-Methoxyacetyl-4-(4-methoxybenzenesulfonyl)-7-methyl-2,3-4,5-tetrahydro-1H-[1,4]benzodiazepine-3-carboxylic acid, hydroxyamine] were, in that order, 125 ± 6 nM, 1.8 nM, 105 nM and 2.6 nM.
Consider `COc1ccc(S(=O)(=O)N2Cc3cc(C)ccc3N(C(=O)c3ccccc3)CC2C(=O)NO)cc1` (stereo not shown) [Example 60, 1-Benzoyl-4-(4-methoxybenzenesulfonyl)-7-methyl-2,3,4,5-tetrahydro-1H[1,4]benzodianzepine-3-carboxylic acid, Hydroxyamide], for which the IC50 turned out to be 143 nM in test [1], 1.3 nM in test [2], 22.7 nM in test [3] and 1.4 nM in test [4].
Taken in the same sequence, the figures for `COc1ccc(S(=O)(=O)N2Cc3ccc(Cl)cc3N(C(=O)c3ccc(OC(F)(F)F)cc3)CC2C(=O)NO)cc1` (stereo not shown) [Example 61, 4-(4-Methoxybenzenesulfonyl)-1-[4-(trifluoromethoxy)benzoyl]-8-chloro-2,3,4,5-tetrahydro-1H-[1,4]benzodiazepine-3-carboxylic acid, Hydroxyamide] were 1250 ± 69 nM, 0.4 nM, 239 nM and 1.3 nM.
The like results for `COc1ccc(S(=O)(=O)N2Cc3cc(C)ccc3N(C(=O)c3ccccc3-n3cccn3)CC2C(=O)NO)cc1` (stereo not shown) [Example 63] were, in that order, 446 ± 48 nM, 3.1 nM, 130 nM and 5.6 nM.
Taken in the same sequence, the figures for `COc1ccc(S(=O)(=O)N2Cc3ccc(Cl)cc3N(C(=O)c3ccccc3N3CCOCC3)CC2C(=O)NO)cc1` (stereo not shown) [Example 64, 4-(4-Methoxybenzenesulfonyl)-1-[2-(4-morpholino)phenylcarbonyl}-8-chloro-2,3,4,5-tetrahydro-1H-[1,4]benzodiazepine-3-carboxylic acid, Hydroxyamide] were 384 nM, 3.4 nM, 157 nM and 6.1 nM.
Consider `CCOc1ccc(C(=O)N2CC(C(=O)NO)N(S(=O)(=O)c3ccc(OC)cc3)Cc3ccccc32)cc1` (stereo not shown) [Example 65, 1-(4-Ethoxybenzoyl)-4-(4-methoxybenzenesulfonyl)-2,3,4,5-tetrahydro-1H-[1,4]benzodiazepine-3-carboxylic acid, Hydroxyamide], for which the half-inhibitory concentration (IC50) worked out at 157 nM in test [1], 1.5 nM in test [2], 23.5 nM in test [3] and 1.5 nM in test [4].
In the case of `COc1ccc(S(=O)(=O)N2Cc3ccccc3N(C(=O)c3ccc(-n4ccc(C)n4)cc3Cl)CC2C(=O)NO)cc1` (stereo not shown) [Example 66, 4-(4-Methoxybenzenesulfonyl)-1-[2-chloro-4-(3-methyl-1-pyrazolyl)phenylcarbonyl}-2,3,4,5-tetrahydro-1H-[1,4]benzodiazepine-3-carboxylic acid, Hydroxyamide], the IC50 in test [1] turned out to be 148 nM; in test [2] it was 2.6 nM; in test [3], 83.4 nM; in test [4], 3.4 nM.
The like results for `COc1ccc(S(=O)(=O)N2Cc3ccccc3N(Cc3ccccc3)CC2C(=O)NO)cc1` (stereo not shown) [Example 67, 1-Benzyl-4-(4-methoxybenzenesulfonyl)-2,3,4,5-tetrahydro-1H-[1,4]benzodiazepine-3-carboxylic acid, Hydroxylamide] were, in that order, 551 ± 29 nM, 73.9 nM, 1320 nM and 50.8 nM.
Taken in the same sequence, the figures for `COc1ccc(S(=O)(=O)N2Cc3ccccc3N(C(=O)c3ccc(OC)cc3OC)CC2C(=O)NO)cc1` (stereo not shown) [Example 71, 1-(2,4-Dimethoxybenzoyl)-4-(4-methoxybenzenesulfonyl)-2,3,4,5-tetrahydro-1H-[1,4]benzodiazepine-3-carboxylic acid, Hydroxyamide] were 136 nM, 1.3 nM, 41.3 nM and 2.4 nM.
Taken in the same sequence, the figures for `COc1ccc(S(=O)(=O)N2Cc3ccccc3N(C(=O)CN3CCN(C)CC3)CC2C(=O)NO)cc1` (stereo not shown) [Example 72, 4-(4-Methoxybenzenesulfonyl)-1-[2-(4-methylpiperazin-1-yl)acetyl]-2,3,4,5-tetrahydro-1H-[1,4]benzodiazepine-3-carboxylic acid, Hydroxyamide] were 808 nM, 317 nM, 4980 nM and 187 nM.
